Data from US3966779A, “Thymol derivatives and a process for their preparation” (priority 1974, dated 1976).
Where a name gives a salt, the structure may show the parent alone.

Tests used:
nictitating-membrane = experiment: Adrenaline stimulated nictitating-membrane of anesthetized cats (peripheral vasodilation); type: in vivo; conditions: for change in adrenaline-induced nictitating-membrane contraction: anesthetized cats, 0.01 mg Adrenaline i.v.; for effectiveness compared to Compound A (nictitating-membrane): in words, from Table II
Method: a. Adrenaline stimulated nictitating-membrane of anesthetized cats
This experiment is a classical model for the measurements of a peripheral vasodilation. Male and female cats have been anesthetized with pentobarbital. After tracheotomy the contraction of the nictitating-membrane was recorded by means of a strain-gauge. As stimulating agent 0.01 mg Adrenaline has been administered intravenously in intervals of 10 minutes.

isolated rabbit ears = experiment: Isolated rabbit ears, Pissensky's method (increased number of drops)
Method: b. Experiments on isolated rabbit ears
Male and female rabbits were killed 15 minutes after administration of heparine. Both ears were then cut off at the bases and examined according to Pissensky's method. The overflowing drops were measured by means of an electronic drop counter.

[1] = Acute toxicity, 7-day test, method of Litchfield and Wilcoxon; conditions: mouse, in vivo, mice
From the text: The toxicity has been determined in a 7-day test with NMRI-mice having an average body weight of 18 to 26 g according to the method of Litchfield and Wilcoxon.

[2] = prior art, cited from earlier work

Structure (SMILES) | change in adrenaline-induced nictitating-membrane contraction (nictitating-membrane; 0.025 mg/kg i.v.) | change in adrenaline-induced nictitating-membrane contraction (nictitating-membrane; 0.5 mg/kg i.v.) | change in adrenaline-induced nictitating-membrane contraction (nictitating-membrane; 2 mg/kg i.v.) | effectiveness compared to Compound A (nictitating-membrane) (nictitating-membrane) | Increased number of drops measured in the isolated rabbit ear (isolated rabbit ears; 0,5 mg) | Increased number of drops measured in the isolated rabbit ear (isolated rabbit ears; 0,025 mg) | LD50 at 168 h ([1]; iv) [mg/kg] | LD50 at 168 h ([1]; po, i.g.) [mg/kg] | Increased number of drops measured in the isolated rabbit ear (isolated rabbit ears; 1 mg) [%] | Increased number of drops measured in the isolated rabbit ear (isolated rabbit ears; 2 mg) [%] | Increased number of drops measured in the isolated rabbit ear (isolated rabbit ears; 4 mg) | duration of action [2] | absorbability ([2]; thymoxamine) | toxicity ([2]; thymoxamine) | LD50 at 168 h ([1]; sc) [mg/kg] | action on the vessels of isolated rabbit ears (isolated rabbit ears; in words, from Table III)
CCCCCCCC(=O)Oc1cc(C(C)C)c(OCCN(C)C)cc1C [Compound 3, (4-Capryloxy-thymyl)-(2'-dimethylaminoathyl)-ether.HCl] | ~ 30% | 80% | 100% | much more effective than Compound A | 80% | ~ 40% | 25 | 400 |  |  |  |  |  |  |  | 
CC(=O)Oc1cc(C(C)C)c(OCCN(C)C)cc1C [Compound A, reference compound] | 0% | 0% | 50% |  | 15% | 14% | 48 | 193 | 15 | 16 | 16% | short duration of action | low absorbability | relative toxicity | 156 | 
Cc1cc(OCCN(C)C)c(C(C)C)cc1OC(=O)OC(C)C [Compound 1, (4-Isopropoxycarboxy-thymyl)-(2'-dimethylaminoathyl)-ether.HCl] | ~ 60% | 100% | absolute in- | much more effective than Compound A | ~ 20% | ~ 10% | 44 | 272 | 34 | 58 | 139% |  |  |  | 210 | unexpected action on the vessels of isolated rabbit ears
CCCCCCCCCC(=O)Oc1cc(C(C)C)c(OCCN(C)C)cc1C [Compound 2, (4-Caprinyloxy-thymyl)-(2'-dimethylaminoathyl)-ether.HCl] | ~ 10% | ~ 50% | 80% | much more effective than Compound A | 10% | 15% | 96 | 1020 | 27 | 68 | ~ 80% |  |  |  | 1550 | 
